Consider four compounds from US20230042929A1, “Methods of Screening to Determine Effective Dosing of Cancer Therapeutics” (Kiyatec, Inc., priority 2019, published 2023).

Where two headings read alike, the source gives them in different places.

Series [1] concerns recurrent platinum-resistant OC. Particulars: patients with recurrent platinum-resistant OC; cited from earlier work.
Series [2] deals with CD3+ T cells infiltrating matched melanoma microtumors. Put plainly: Detection of T cell infiltration in microtumor model. The format is cell-based, human. The protocol:
Detection of T cell infiltration. T cells were stained with the fluorescent stain PKH (Sigma PKH26GL-1KT) according to manufacturer's recommendations. On the same day, T cells and tumor cells were seeded in EV3D media and Matrigel (Corning 356234) in scaffolds. Scaffolds were incubated for 1 hour at 37° C. and 5% CO2 then 200 μl of EV3D media was added to each scaffold well. After an additional hour, T cell scaffolds were placed on top of tumor cell scaffolds (microtumors). Media was changed every one or two days. Viability was determined for T cell scaffolds and microtumors after one week using PrestoBlue™ Cell Viability Reagent (Invitrogen A13262). Microtumors were washed in PBS, then harvested using Liberase DH (Sigma LIBDH− RO) in serum-free media while rotating at 37° C. 5% CO2. Harvested cells were then analyzed for PKH (PE channel), and CD3 using flow cytometry. Unstained T cells were used to define PKH+ gates.

For series [3] the following is noted: cited from earlier work; for half-life: in vivo.
The next series relates to GEN26 tumor spheroids. Put plainly: Tumor spheroid death assay (CellTiter-Glo 3D). Particulars: 24 hours. Type of series: cell-based, human. On the procedure:
Tumor spheroid death assay. […] After a 1 hour incubation at 37 C 5% CO2, plates were centrifuged for 5 minutes at 500×g. Tumor spheroids were allowed to form overnight. After 24 or 72 hours, CellTiter-Glo® 3D Cell Viability Assay (Promega G9683) was used according to manufacturer's recommendations and relative luminescence units (RLUs) were recorded using a TEGAN infinite M1000pro (Mannedorf, Switzerland). RLUs were graphed using GraphPad Prism.
Background: In ATP-based viability assays light output follows the ATP content of the culture.

Series [4] relates to OVC45 and OVC33 ovarian cancer patient derived 3D spheroids. Put plainly: 3D spheroid drug response assay (CellTiter-Glo 3D, imaging). Type of series: cell-based, human. The protocol: Live OC tissue was received within 24 hours of surgery and dissociated to single cells via mechanical and enzymatic digestion. Cells were then cryopreserved until ready for use. 3D spheroids were generated as previously described. Briefly, cells were seeded in KIYA-PREDICT™ media (KIYATEC, Inc., South Carolina, USA) in 384-well round bottom, ultra-low attachment plates (Corning Inc., New York, USA) and centrifuged at 500×g for five minutes then placed in a 37° C. incubator at 5% CO2.
Given the prevalence of drug resistance and altered drug penetration for 3D cultures, drug concentrations for single dose experiments were in the micromolar or microgram per milliliter range for testing. […] Viability was determined 48 hours later. For durvalumab (Selleckchem, Texas, USA) and olaparib combination studies, spheroids were treated with olaparib for 48 hours, followed by durvalumab for an additional 72 hours. […] T-cells were then added to the bulk cells and seeded for 3D spheroid culture. Viability was determined 48 hours later. Viability read outs were conducted using CellTiter-Glo® 3D Cell Viability Assay (Promega, Wisconsin, USA) and relative luminescence units (RLUs) were recorded using a TECAN infinite M1000pro (Mannedorf, Switzerland).
Statistical analysis was performed using GraphPad Prism software version 8.2.1. Results are expressed as the mean±standard deviation (SD). Unpaired t tests were used to determine significance between two groups. Unpaired One-way ANOVA with multiple comparisons was used to determine significance across three or more groups. Combenefit software generated concentration responses and Loewe synergy indices from calculated percent viability normalized to vehicle control.

The test system of series [5] is T cells stimulated with matched melanoma tumor spheroids. As to the kind of experiment: Tumor spheroid assay to assess T cell responses (flow cytometry). Type of series: cell-based, human. On the procedure:
Tumor spheroid assay to assess T cell responses. Expanded T cells were cultured in the absence of activation components (EV3D media) for 72 hours prior to tumor spheroid assay. […] After a 1 hour incubation, plates were centrifuged for 5 minutes at 500×g. Patient samples were then cultured for 24 hours, and wells were then harvested for flow cytometric analysis.
Flow cytometry. Cells were harvested from 384-well plates following tumor spheroid assays or dissociated from scaffolds and resuspended in 100 μl FACS buffer (2% FBS, 2 mM EDTA, 0.05% sodium azide in PBS). […] Samples were then analyzed using the CytoFLEX LX flow cytometer and software (Beckman Coulter, Brea, Calif.). Percent of parent was then graphed and evaluated for statistics using GraphPad Prism.
(Flow cytometry measures light scatter and fluorescence of single cells or particles in a stream.)

The subject of series [6] is melanoma microtumors co-cultured with stacked T cell compartment. As to the kind of experiment: Microtumor viability assay (PrestoBlue growth rate). The format is cell-based, human. The protocol: PrestoBlue viability assays. PrestoBlue™ Cell Viability Reagent (Invitrogen A13262) was diluted 1:10 in EV3D media. Each T cell scaffold or microtumor was placed in 250 μl of diluted PrestoBlue reagent in a 96-well plate and allowed to incubate for 2 hours at 37° C. 5% CO2. Scaffolds and microtumors were then placed in fresh media and duplicates of 100 μl per PrestoBlue sample was pipetted into a black walled 96-well plate and read on a TECAN infinite M1000pro (Mannedorf, Switzerland) at an excitation of 560 nm and an emission 590 nm with a gain of 60. Absorbance measurements from scaffolds with no cells were subtracted from each sample and relative fluorescent units (RFU) were graphed using GraphPad Prism.
Microtumor viability assay. T cells and tumor cells were seeded in EV3D media and Matrigel (Corning 356234) with collagen (Corning 354236) in scaffolds. […] Scaffolds were incubated for 1 hour at 37° C. and 5% CO2 then 200 μl of EV3D media was added to each scaffold. After an additional hour, T cell scaffolds were placed on top of tumor cell scaffolds (microtumors) or microtumors were cultured in the absence of a stacked T cell scaffold. Media was changed every one to two days. Supernatant from day seven was collected and stored at −80° C. for analyte analysis. Viability was determined for T cell scaffolds and microtumors after 24 hours (day one) and at day seven using PrestoBlue™ Cell Viability Reagent (Invitrogen A13262). PrestoBlue absorbance readings (RFUs) for day one were subtracted from day seven to determine microtumor growth rates.

Series [7] deals with GM-CSF, IFNγ, Granzyme B, MIP-1α, MIP-1β, TNFα secretion. As to the kind of experiment: Detection of analyte secretion in microtumor model (Milliplex). The format is cell-based, human. The protocol:
Detection of Analyte Secretion. Individual beads (GM-CSF, IFNγ, Granzyme B, MIP-1α, MIP-1β, TNFα) were purchased from the Milliplex™ MAP Human CD8+ T cell Magnetic Bead Panel 96-well Plate Assay (EMO Millipore HCD8MAG-15K). Supernatant was collected at day seven of microtumor viability assays and stored at −80° C. Samples were processed according to manufacturer's recommendations and the assay plate was run on the BIORAD Luminex® BioPLEX200™ System (Hercules, Calif.). Analyte concentration was determined by interpolation of assay standards using GraphPad Prism.

The subject of series [8] is melanoma cell line with tumor infiltrating lymphocytes. Put plainly: Image based assay of tumor and T-cell interactions in 3D spheroids. Conditions: 1:3 E:T, up to 72 hours, drug alone. The protocol:
Referring to FIGS. 25A-H, a summary of an image-based assay for measuring tumor and T-cell interactions for I/O applications is shown. FIG. 25(A) illustrates representative images of a melanoma cell line (Green) and tumor infiltrating lymphocytes (Red) at a 1:3 Effector:Target cell ratio (E:T) cultured as 3D spheroids at 72 hours, Scale bar=200 μm. Groups were treated with immunomodulators (Activator=CD3/CD28 antibody, Durva=Durvalumab) and analyzed every 24 hours for 72 hours (FIGS. 25F-25H). Total red or green fluorescence was measured for T-cells (FIGS. 25B and 25C) and tumor cells (FIG. 25F) using an algorithm developed in Celleste Image Analysis software. Imaging based metrics were compared to conventional methods for assessing cell viability, CellTiter-Glo® (FIGS. 25D and 25G) and flow cytometry (FIGS. 25E and 25H). An increase in T-cell viability in all treatment groups was observed compared to no treatment when cultured with tumor cells (D). Total green fluorescence signal (F) was an acceptable indicator of T-cell induced cytotoxicity when compared to CellTiter-Glo® (FIG. 25G). The use of flow cytometry as a metric for T-cell induced cytotoxicity appears to not be as sensitive at earlier timepoints (24 hrs) as at later timepoints (72 hours). […] Two-Way ANOVA, error bars reflect SD. *p<0.05, **p<0.01, ***p<0.001.

As for `NC(=O)c1cccc2cn(-c3ccc([C@@H]4CCCNC4)cc3)nc12` [niraparib], the “complete or partial responses, share of patients” value in [1] is on record as less than 5%.
As to pembrolizumab, the “infiltration of CD3+ T cells” value was “decrease was observed” in series [2] (GEN19 and GEN20, with vs without treatment); “increase in infiltration of CD3+ T cells” in series [2] (GEN21 and GEN26, with vs without treatment). For the same compound, the half-life result in series [3] was “approximately 27 days”. In addition, the “predicted maximum serum concentration” value in series [3] (intravenous 10 mg/kg once every two weeks, advanced solid tumor cancer patients) is reported as “approximately 200 μg/mL”. Moreover, the tumor spheroid viability result in the series on GEN26 tumor spheroids (GEN26 tumor spheroids alone, 100 μg/ml, vs no treatment) is “slight decrease in viability”; in the series with GEN26 tumor spheroids (GEN26 tumor spheroids co-cultured with T cells, ratio 1:5, 100 μg/ml) it was “greatest reduction in tumor spheroid viability”. In addition, the spheroid viability entry in series [4] (OVC33, T-cells incubated with 300 μg/mL pembrolizumab before 3D incorporation, 48 hours) is reported as “significant reduction in spheroid viability”; in [4] (OVC45 and OVC33, 100 μg/mL pembrolizumab alone, 48 hours) it was “decrease in spheroid viability with pembrolizumab treatment alone was not detected for both samples”. Also, the “CD3+/PD-1−/CD69+ population (T cell activation)” value in series [5] (GEN25, data not shown) was “did not display an increase”. In series [5] (three patients (GEN19, GEN21, GEN26), tumor spheroids + 100 μg/ml pembrolizumab vs T cells with or without spheroids), the “CD3+/PD-1−/CD69+ levels (T cell activation)” value was “significant increase”. Also, the microtumor growth rate entry in [6] (GEN19 and GEN26, 100 μg/ml, day 1 to day 7, vs untreated) was “reduced microtumor growth rates compared to untreated”; in series [6] (GEN20 or GEN21, 100 μg/ml, day 1 to day 7, vs no treatment), “did not detect a difference in microtumor growth rates”. Further, the overall microtumor viability result in series [6] (GEN26, 100 μg/ml, vs untreated microtumors) was “reduction in overall microtumor viability”. The “PrestoBlue RFU readings” value in series [6] (day one to day seven, GEN19, GEN26, GEN20, GEN21) is “altered the RFU readings over the 7 day period for GEN19 and GEN26 more significantly than GEN20 and GEN21”. In addition, in series [7] (GEN19, day 7, 100 μg/ml), the “granzyme B secretion” value is reported as “greatest increase”. Further, the analyte secretion entry in series [7] (GEN19 and GEN26, day 7, 100 μg/ml, vs no treatment) was “increase in nearly all analytes tested”; in series [7] (GEN20, day 7, 100 μg/ml), “reduction of all tested analytes”; in [7] (GEN21, day 7, 100 μg/ml), “increase in GM-CSF and moderate or no change for other tested analytes”.
As for `O=C(c1cc(Cc2n[nH]c(=O)c3ccccc23)ccc1F)N1CCN(C(=O)C2CC2)CC1` [olaparib], in [4] (OVC33, 48 hours, images), the spheroid appearance result was “less dense with less cell contact”. In addition, the “spheroid viability, relative sensitivity of samples” value in series [4] (olaparib alone, 50 μM (OVC33) or 100 μM (OVC45), 48 hours) is “OVC33 was more sensitive to olaparib alone compared to OVC45”; in series [4] (single agent olaparib dose-response, sequential dosing study), “OVC33 remained more sensitive to single agent olaparib than OVC45”.
On to durvalumab, for which the half-life result in [3] (human) was “high”. In series [3] (twice weekly intravenous dosing regimen), the “predicted achievable serum concentration levels” value was “greater than 10 μg/mL”. The T-cell induced cytotoxicity result in series [8] is listed as “did not cause significant T-cell induced cytotoxicity”. Further, the spheroid viability result in [4] (durvalumab alone, dose-response, OVC45 and OVC33) is “did not result in a dose-dependent reduction in spheroid viability”.
